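Test compounds were applied to cells in 96-well plates for 48 hours at 5 doses. Abbreviation: GI50, concentration required for 50% inhibition of growth. TGI denotes the concentration required for complete inhibition of growth.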
Experiments:
Assay in all cases: inhibition of tumour cell growth, NCI panel, 48 h
[1] = test system: NCI-H460 lung
[2] = test system: KM12 colon
[3] = test system: T-47D breast
[4] = test system: COLO 205 colon
[5] = test system: HT29 colon
[6] = test system: SNB-19 CNS
[7] = test system: UACC-257 melanoma
[8] = test system: NCI-H23 lung
[9] = test system: HL-60(TB) leukemia
[10] = test system: MDA-MB-435

SMILES	GI50 [1] [µM]	TGI [1] [µM]	GI50 [2] [µM]	TGI [2] [µM]	GI50 [3] [µM]	TGI [3] [µM]	GI50 [4] [µM]	TGI [4] [µM]	GI50 [5] [µM]	TGI [5] [µM]	GI50 [6] [µM]	TGI [6] [µM]	GI50 [7] [µM]	TGI [7] [µM]	GI50 [8] [µM]	TGI [8] [µM]	GI50 [9] [µM]	TGI [9] [µM]	TGI [10] [µM]	GI50 [10] [µM]
CCOc1cc(/C=N\NC(=O)N/N=C/c2ccc(O)c(OCC)c2)ccc1O	2.88	> 67.7	1.01	> 100	6.49	> 100	3.85	26.6	3.38	> 100	4	> 100	72.1	> 100	4.22	> 100	2.5	> 39.2	–	–
CCOC(=O)CNC(=O)C(CSC(=O)N(C)O)NC(=O)CCC(N)C(=O)O (stereo unspecified)	> 2000	> 2000	> 2000	> 2000	–	–	> 2000	–	> 2000	–	> 2000	> 2000	> 2000	> 2000	> 2000	> 2000	> 2000	> 2000	–	–
NNC(=S)N/N=C/C(Cl)=C(\Cl)C(=O)O	–	> 100	–	–	–	–	–	–	–	> 100	–	> 100	–	> 100	–	> 100	–	> 100	–	–
COC(=O)C(=O)C1CCCCC(C2=NC3NN=C(N)N3C2=O)C1=O (stereo unspecified)	–	> 100	–	> 100	–	–	–	> 100	–	> 100	–	> 100	–	> 100	–	> 100	–	> 100	–	–
NC(=O)CCC(NC(=O)C(F)(F)F)C(=O)O (stereo unspecified)	–	> 100	–	> 100	–	–	–	> 100	–	> 100	–	> 100	–	> 100	–	> 100	–	–	–	–
CC12C(=O)N(CCN)C(=O)C1C1c3ccccc3C2c2ccccc21 (stereo unspecified)	–	> 100	–	> 100	–	–	–	> 100	–	> 100	–	> 100	–	> 100	–	> 100	–	> 100	–	–
C[C@]12CCCC(=O)C1C[C@H](C(=O)O)CC2 (stereo partly specified)	–	> 100	–	> 100	–	–	–	> 100	–	> 100	–	> 100	–	> 100	–	> 100	–	> 100	–	–
Cc1cccc(N=C2NC(=O)C(CC(=O)Nc3ccc(Cl)cc3C)S2)c1 (stereo unspecified)	–	> 100	–	> 100	–	–	–	> 100	–	> 100	–	> 100	–	> 100	–	> 100	–	> 100	–	–
CCc1oc2ccc(OC)c3c2c1C=CC=C3	–	> 100	–	> 100	–	–	–	> 100	–	> 100	–	> 100	–	> 100	–	> 100	–	> 100	–	–
Cc1cc(=O)[nH]c(CNC(=O)Cc2ccccc2)n1	–	> 100	–	> 100	–	–	–	> 100	–	> 100	–	> 100	–	> 100	–	> 100	–	> 100	–	–
CC12OC3CC(O1)C1(C=O)C4CCC5(C)C(c6ccc(=O)oc6)CCC5(O)C4CCC1(C3)O2 (stereo unspecified)	–	0.159	–	1.4	–	–	–	1.69	–	1.3	–	1.78	–	0.774	–	–	–	0.474	–	–
O=C1c2ccccc2C(=O)c2c(NC(=O)c3ccc4c5c(ncnc35)-c3ccccc3C4=O)cccc21	–	> 100	–	> 100	–	> 100	–	> 100	–	> 100	–	> 100	–	> 100	–	> 100	–	–	> 100	–
CCC[CH2][Sn]1([CH2]CCC)[O]C(=O)c2cc(C)ccc2[O]1	1.54	2.87	1.15	2.7	–	–	0.46	1.5	1.24	2.56	0.7	1.93	0.419	1.56	0.332	1.29	0.164	0.444	–	–
CS[C@@]1(C(=O)Nc2ccc3[nH]nc(-c4ccc(OC(C)C)nc4)c3c2)CCN(CC(=O)N2CC=C(c3ccc(-c4ncn(C)n4)cc3)CC2)C1	> 100	> 100	0.929	> 100	27.9	> 100	0.0178	> 100	0.0368	> 100	> 100	> 100	–	–	0.16	> 100	0.0551	> 100	> 100	0.355
O=[N+]([O-])c1cc(/C=N/NS(=O)(=O)c2ccc(F)cc2)c(O)c([N+](=O)[O-])c1	–	84	–	50	–	–	–	34.5	–	64.6	–	> 100	–	> 100	–	60.1	–	67.3	–	–
C[N+]1=c2c3cccc4cccc(c(=O)n2CCC1)c43	–	37.7	–	> 100	–	–	–	32.2	–	52.5	–	–	–	32.9	–	39.1	–	25.3	–	–
CP(C)C.[Ag][I]	–	> 100	–	> 100	–	–	–	> 100	–	> 100	–	> 100	–	> 100	–	> 100	–	> 100	–	–
CCOC(=O)N1CCC(=O)C[C@@H]1C/C=C/P1(=O)O[C@H](c2ccccc2)C(C)N1C(C)C (stereo partly specified)	–	–	–	> 100	–	–	–	–	–	> 100	–	> 100	–	> 100	–	> 100	–	–	–	–
N#Cc1ccccc1Nc1ccccc1S	–	> 100	–	> 100	–	–	–	> 100	–	> 100	–	60.5	–	> 100	–	> 100	–	> 100	–	–
O=C1c2ccccc2C(=O)c2sc(Nc3ccc(Cl)c(Cl)c3)nc21	–	34.2	–	18	–	22.7	–	15.4	–	42.5	–	32.9	–	8.63	–	10.5	–	1.18	–	–

SMILES	GI50 [1] [µM]	TGI [1] [µM]	GI50 [2] [µM]	TGI [2] [µM]	GI50 [3] [µM]	TGI [3] [µM]	GI50 [4] [µM]	TGI [4] [µM]	GI50 [5] [µM]	TGI [5] [µM]	GI50 [6] [µM]	TGI [6] [µM]	GI50 [7] [µM]	TGI [7] [µM]	GI50 [8] [µM]	TGI [8] [µM]	GI50 [9] [µM]	TGI [9] [µM]	TGI [10] [µM]	GI50 [10] [µM]
COC(=O)C1=Cc2c(OC)cc(OC)c(OC)c2[C@H](c2cc(OC)c(OC)cc2OC)C1C(=O)OC (stereo partly specified)	–	> 100	–	> 100	–	–	–	> 100	–	> 100	–	> 100	–	–	–	> 100	–	> 100	–	–
CC[C@H](C)[C@H](NC(=O)C12CC(NC(C)=O)(C1)C2)C(=O)N(C)[C@H](C[C@@H](OC(C)=O)c1nc(C(=O)N[C@@H](Cc2ccccc2)C[C@H](C)C(=O)OC)cs1)C(C)C	0.32	> 16.7	0.296	> 16.7	–	–	0.0991	1.06	0.0731	> 5.52	0.607	> 16.7	7	> 16.7	0.65	> 16.7	0.0522	0.21	0.501	0.033
CC[O-].CC[O-].O=C([CH-]C(=O)c1ccccc1)c1ccccc1.O=C([CH-]C(=O)c1ccccc1)c1ccccc1.[Ti+4]	44.3	> 100	> 100	> 100	–	–	> 100	> 100	> 100	> 100	–	–	> 100	> 100	> 100	> 100	25.3	> 100	–	–
OC(c1ccccc1)c1c(-c2ccccc2)oc(-c2ccccc2)c1C(O)c1ccccc1 (stereo unspecified)	–	28.8	–	18.9	–	23.3	–	19.4	–	23.1	–	28.6	–	–	–	23.3	–	6.13	21.1	–
CCOC(=O)C1CC/C(=C(/C#N)C(=O)OC)N1 (stereo unspecified)	–	> 100	–	> 100	–	–	–	> 100	–	–	–	> 100	–	> 100	–	> 100	–	> 100	–	–
CC(=O)/C=C/C1=C(c2ccsc2)c2ccccc2CC1	34.4	> 100	17.2	33	66	> 100	36.5	> 100	54.3	> 100	42.5	> 100	–	–	20.3	39.6	–	–	33.8	17.9
C[C@@H]1CN2[C@H]3[C@@H]1CC[C@]31CCC(=O)O[C@]1(C)[C@@H]1CC[C@H]3CCC=C3[C@@H]12	> 70	> 70	> 70	> 70	> 70	> 70	> 70	> 70	> 70	> 70	> 70	> 70	–	–	> 70	> 70	> 70	> 70	> 70	48.2
O=C1CCC(=O)C(C(=O)CCC(=O)Nc2cccc(Cl)c2)C1 (stereo unspecified)	–	> 100	–	> 100	–	–	–	> 100	–	> 100	–	> 100	–	> 100	–	> 100	–	> 100	–	–
C=C(C)[C@@H]1CC[C@]2(C)[C@H](C=CC3=C4C[C@@](C)(CO)CC[C@]4(C)CC[C@]32C)[C@@]1(C)CCCN	1.71	3.33	1.6	3.02	–	–	1.49	3.23	1.63	3.28	1.75	3.17	1.87	3.66	1.77	3.32	–	–	3.2	1.78
CN(NC(=O)CC(=O)NN(C)C(=S)c1ccc(Cl)cc1)C(=S)c1ccc(Cl)cc1	4.38	63.7	16.9	66.4	21.8	> 100	23	48.5	23.6	> 100	23.1	> 100	–	–	12.1	46.2	25.1	71.7	> 100	24.4
CCCCCc1c(C)[nH]c(/C=c2\[nH]/c(=C3/C=c4ccccc4=N3)cc2OC)c1C	0.0614	11.2	0.0511	> 100	0.0588	0.698	0.0568	0.494	–	–	0.226	15.4	0.394	1.73	0.236	3.1	0.124	3.63	1.16	0.0455
OC1C2C=CCC1CCC2 (stereo unspecified)	–	> 100	–	> 100	–	–	–	> 100	–	> 100	–	> 100	–	> 100	–	> 100	–	> 100	–	–
Cc1cc2c(cc1C)[n+]([O-])c(-c1c(Cl)cccc1Cl)c(N)[n+]2[O-]	–	> 100	–	> 100	–	–	–	38.4	–	> 100	–	> 100	–	83.6	–	75.8	–	> 100	–	–
CC(C)NC(=O)O/N=C1\CCC2[C@@H]3CC=C4C[C@@H](OC(=O)NC(C)C)CC[C@]4(C)C3CC[C@]12C (stereo partly specified)	–	3.06	–	3.73	–	–	–	1.29	–	8.87	–	6.05	–	2.4	–	3.79	–	5.37	–	–
CCOC(=O)C1(Cc2ccc3ccccc3c2)CCCCCN1 (stereo unspecified)	–	34.7	–	–	–	–	–	34.4	–	26.9	–	> 100	–	–	–	> 100	–	52	–	–
Oc1[nH]c2ccc(Cl)cc2c1/C=c1/ccc2c(c1)N=C(c1cc(F)cc(F)c1)N=2	–	–	3.55	> 100	4.47	> 100	4.28	> 100	–	–	> 100	> 100	–	–	5.01	> 100	3.39	7.23	–	–
CC1(C)CC2CC(C)(CN2c2ncnc3ccc(Br)cc23)C1 (stereo unspecified)	11.1	35.2	11.1	26.5	13	31.2	15.4	29.8	–	–	14.4	30.5	–	–	8.74	20.8	1.38	3.48	27.7	3.98
COc1cc(C2C(C#N)=C(N)Oc3cc4c(cc32)OCO4)cc2c1OCO2 (stereo unspecified)	0.34	26.2	0.206	> 46.6	3.38	> 100	0.308	1.02	0.324	> 59.7	0.709	> 100	0.9	> 100	0.313	> 100	0.219	0.715	–	–
CCOc1ccc(NC(=O)CCC(=O)NN)cc1	–	> 100	–	> 100	–	–	–	> 100	–	> 100	–	> 100	–	> 100	–	> 100	–	> 100	–	–
